From patent US6630484B1 (priority 1996, dated 2003)
Entries after “also recorded” stand apart in the source; their conditions may differ.

What was measured:
[1] = biological target: T1, Golgi α-mannosidase II (Homo sapiens, UniProt Q16706); assay: Inhibition of the glycoprotein processing Golgi α-mannosidase II; assay type: biochemical
T1 sequence (Q16706 1-1144): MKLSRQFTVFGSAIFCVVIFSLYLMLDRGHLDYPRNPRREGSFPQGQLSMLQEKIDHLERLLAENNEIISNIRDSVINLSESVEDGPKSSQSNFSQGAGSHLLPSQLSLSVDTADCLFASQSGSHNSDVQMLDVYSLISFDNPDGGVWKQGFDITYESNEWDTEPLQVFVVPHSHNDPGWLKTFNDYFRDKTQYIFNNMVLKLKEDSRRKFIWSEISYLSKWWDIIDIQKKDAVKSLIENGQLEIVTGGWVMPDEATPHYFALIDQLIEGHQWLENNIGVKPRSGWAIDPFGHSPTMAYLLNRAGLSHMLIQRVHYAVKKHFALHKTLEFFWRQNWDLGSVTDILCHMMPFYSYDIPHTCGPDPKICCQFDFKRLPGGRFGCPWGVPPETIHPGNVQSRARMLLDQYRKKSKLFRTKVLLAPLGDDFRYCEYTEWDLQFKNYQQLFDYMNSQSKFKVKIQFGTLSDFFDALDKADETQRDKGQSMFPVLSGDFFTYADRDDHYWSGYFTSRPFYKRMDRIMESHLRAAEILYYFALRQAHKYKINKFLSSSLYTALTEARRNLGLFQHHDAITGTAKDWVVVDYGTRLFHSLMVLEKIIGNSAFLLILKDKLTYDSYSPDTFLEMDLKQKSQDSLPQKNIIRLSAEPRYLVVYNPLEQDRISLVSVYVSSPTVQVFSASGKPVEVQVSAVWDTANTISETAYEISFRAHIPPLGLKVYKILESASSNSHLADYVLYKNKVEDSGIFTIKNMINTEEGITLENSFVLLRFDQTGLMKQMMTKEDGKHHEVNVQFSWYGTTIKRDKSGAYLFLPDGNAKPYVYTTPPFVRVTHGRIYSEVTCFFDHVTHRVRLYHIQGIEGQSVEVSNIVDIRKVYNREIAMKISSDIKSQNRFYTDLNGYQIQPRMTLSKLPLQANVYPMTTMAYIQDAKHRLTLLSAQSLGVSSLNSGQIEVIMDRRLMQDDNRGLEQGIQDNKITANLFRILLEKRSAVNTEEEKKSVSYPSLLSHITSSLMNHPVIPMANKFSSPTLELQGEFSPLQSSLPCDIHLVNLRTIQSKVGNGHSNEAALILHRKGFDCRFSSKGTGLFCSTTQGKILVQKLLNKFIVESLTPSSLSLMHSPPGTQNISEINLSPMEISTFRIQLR

[2] = 50 to 550 μg/kg/day continuous i.v. infusion over 5 days, cited from earlier work
[3] = animals; cited from earlier work
[4] = biological target: T2, α-mannosidase from jack bean (Canavalia ensiformis, UniProt C0HJB3); assay: Screen for inhibition of α-mannosidase from jack bean; assay type: biochemical; settings: for IC50: read-out: Concentration Required for 50% Inhibitions, α-Mannosidase (jack bean)
T2 sequence (C0HJB3 1-981): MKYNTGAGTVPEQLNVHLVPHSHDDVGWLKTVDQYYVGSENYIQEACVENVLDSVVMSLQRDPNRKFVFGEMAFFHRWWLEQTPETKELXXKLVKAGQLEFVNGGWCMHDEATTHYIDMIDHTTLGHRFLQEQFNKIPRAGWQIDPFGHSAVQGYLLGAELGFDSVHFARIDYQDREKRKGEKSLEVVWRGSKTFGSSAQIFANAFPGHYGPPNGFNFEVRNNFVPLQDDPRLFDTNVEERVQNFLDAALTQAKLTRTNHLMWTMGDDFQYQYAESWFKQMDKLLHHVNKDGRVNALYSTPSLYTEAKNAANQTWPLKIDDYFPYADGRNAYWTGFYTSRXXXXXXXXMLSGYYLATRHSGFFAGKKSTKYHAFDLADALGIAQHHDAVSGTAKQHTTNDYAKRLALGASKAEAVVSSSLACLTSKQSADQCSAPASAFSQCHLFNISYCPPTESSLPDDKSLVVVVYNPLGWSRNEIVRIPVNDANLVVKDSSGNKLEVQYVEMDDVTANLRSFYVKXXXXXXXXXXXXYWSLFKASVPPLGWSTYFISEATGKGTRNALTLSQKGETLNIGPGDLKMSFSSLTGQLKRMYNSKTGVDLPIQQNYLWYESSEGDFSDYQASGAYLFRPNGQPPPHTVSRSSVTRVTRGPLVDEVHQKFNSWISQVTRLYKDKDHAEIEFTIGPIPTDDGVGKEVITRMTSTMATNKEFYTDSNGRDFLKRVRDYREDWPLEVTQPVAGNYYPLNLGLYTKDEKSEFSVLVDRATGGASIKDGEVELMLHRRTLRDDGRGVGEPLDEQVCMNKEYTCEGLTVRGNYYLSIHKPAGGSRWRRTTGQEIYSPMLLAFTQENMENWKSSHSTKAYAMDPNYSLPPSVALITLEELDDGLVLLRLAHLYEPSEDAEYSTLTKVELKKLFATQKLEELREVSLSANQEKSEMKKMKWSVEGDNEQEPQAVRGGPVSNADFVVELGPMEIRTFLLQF

[5] = biological target: T3, lysosomal mannosidase (Homo sapiens, UniProt O00754); assay: Selectivity for inhibition of α-mannosidase II vs. lysosomal mannosidase; assay type: biochemical; settings: for ratio M/L (smaller is better): ratio of activities of α-Mannosidase II/lysosomal mannosidase
T3 sequence (O00754 50-1011): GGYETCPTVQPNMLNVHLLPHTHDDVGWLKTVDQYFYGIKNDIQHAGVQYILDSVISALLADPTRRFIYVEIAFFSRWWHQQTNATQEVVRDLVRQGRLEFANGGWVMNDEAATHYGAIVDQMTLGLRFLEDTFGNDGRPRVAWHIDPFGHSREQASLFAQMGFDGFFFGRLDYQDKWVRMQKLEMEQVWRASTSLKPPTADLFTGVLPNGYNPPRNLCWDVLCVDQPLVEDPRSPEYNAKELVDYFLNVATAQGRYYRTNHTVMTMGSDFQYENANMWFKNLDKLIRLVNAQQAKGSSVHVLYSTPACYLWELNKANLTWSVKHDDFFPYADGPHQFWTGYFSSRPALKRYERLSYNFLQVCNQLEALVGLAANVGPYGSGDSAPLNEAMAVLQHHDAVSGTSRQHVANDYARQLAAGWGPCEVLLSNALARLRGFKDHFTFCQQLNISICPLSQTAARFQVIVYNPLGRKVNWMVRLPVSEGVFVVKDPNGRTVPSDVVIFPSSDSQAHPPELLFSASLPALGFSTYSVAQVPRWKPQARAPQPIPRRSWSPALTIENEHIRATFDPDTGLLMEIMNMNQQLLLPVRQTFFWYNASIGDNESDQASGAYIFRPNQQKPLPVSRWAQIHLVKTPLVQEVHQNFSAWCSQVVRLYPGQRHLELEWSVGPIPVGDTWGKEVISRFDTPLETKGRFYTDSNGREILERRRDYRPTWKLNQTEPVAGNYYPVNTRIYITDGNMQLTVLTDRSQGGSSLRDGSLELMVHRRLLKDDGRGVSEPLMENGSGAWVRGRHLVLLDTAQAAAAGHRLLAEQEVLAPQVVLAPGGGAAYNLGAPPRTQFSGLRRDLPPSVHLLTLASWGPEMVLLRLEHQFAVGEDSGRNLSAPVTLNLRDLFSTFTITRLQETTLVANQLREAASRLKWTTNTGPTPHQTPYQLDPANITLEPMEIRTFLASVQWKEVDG

Compound | α-mannosidase (jack bean) inhibitory activity (in words) [4] | IC50 [4] [µM] | selectivity for inhibition of α-mannosidase II over lysosomal mannosidase (in words) [5] | ratio M/L (smaller is better) [5] | also measured
O[C@H]1[C@H]2[C@H](O)CCCN2C[C@H]1O [Compound 1, swainsonine] | – | – | – | – | inhibition of α-mannosidase II (in words) [1]: potent inhibitor; toxicity observed in patients ([2]; repeated at 28 day intervals): Moderate toxicity; Serum half-life ([2]; patients with advanced malignancies): 12 h; preclinical toxicity [3]: low preclinical toxicity
CC[C@H]1C[C@@H](O)[C@@H]2[C@H](O)[C@H](O)CN2C1 [Compound 24, (1S,2R,6S,8R,8aR)-6-Ethyl-1,2,8-trihydroxyindolizidine] | highest degree of inhibitory activity | 30 | increased selectivity | 0.2 | –
O[C@H]1[C@H]2[C@H](O)C[C@H](CCOCc3ccccc3)CN2C[C@H]1O [Compound 25, (1S,2R,6S,8R,8aR)-6-[2-(Benzyloxy)ethyl]-1,2,8-trihydroxyindolizidine] | slight decrease in inhibitory activity | 70 | increased selectivity | 0.33 | –
CC[C@@H]1C[C@@H](O)[C@@H]2[C@H](O)[C@H](O)CN2C1 [Compound 26, (1S,2R,6R,8R,8aR)-6-Ethyl-1,2,8-trihydroxyindolizidine] | highest degree of inhibitory activity; also recorded: significant decrease in activity | 230 | increased selectivity | 0.47 | –
O[C@H]1[C@H]2[C@H](O)C[C@@H](CCOCc3ccccc3)CN2C[C@H]1O [Compound 27, (1S,2R,6R,8R,8aR)-6-[2-(Benzyloxy)ethyl]-1,2,8-trihydroxyindolizidine] | significant decrease in activity | 275 | – | – | –
CCCC[C@@H]1CCN2C[C@@H](O)[C@@H](O)[C@H]2[C@@H]1O [Compound 52, (1S,2R,7R,8R,8aR)-7-Butyl-1,2,8-trihydroxyindolizidine] | – | > 1000 | increased selectivity | 0.02 | selectivity for inhibition of α-mannosidase II over lysosomal mannosidase [5]: 50 fold; melting point: 156 °C
O[C@@H]1[C@H](CCOCc2ccccc2)CCN2C[C@@H](O)[C@@H](O)[C@@H]12 [Compound 53, (1S,2R,7S,8R,8aR)-7-[2-(Benzyloxy)ethyl]-1,2,8-trihydroxyindolizidine] | weak inhibitor | 890 | – | – | –
CCCC[C@@H]1CCN2CC3OC(C)(C)O[C@H]3[C@@H]2[C@H]1O (stereo partly drawn) [Compound 54, (1S,2R,7R,8S,8aS)-7-Butyl-8-hydroxy-1,2-O-isopropylidenedioxyindolizidine] | – | > 1000 | – | – | –
CC1(C)OC2CN3CC[C@@H](CCOCc4ccccc4)[C@H](O)[C@H]3[C@@H]2O1 (stereo partly drawn) [Compound 55, (1S,2R,7R,8S,8aS)-7-[2-(Benzyloxy)ethyl]-8-hydroyx-1,2-O-isopropylidenedioxyindolizidine] | – | > 1000 | – | – | –
CCCC[C@@H]1CCN2C[C@@H](O)[C@@H](O)[C@@H]2[C@H]1O [Compound 56, (1S,2R,7R,8S,8aS)-7-Butyl-1,2,8-trihydroxyindolizidine] | – | > 1000 | – | – | –
O[C@H]1[C@H](CCOCc2ccccc2)CCN2C[C@@H](O)[C@@H](O)[C@H]12 [Compound 57, (1S,2R,7S,8S,8aS)-7-[2-(Benzyloxy)ethyl]-1,2,8-trihydroxyindolizidine] | – | > 1000 | – | – | –
CCCC[C@H]1CCN2C[C@@H](O)[C@@H](O)[C@@H]2[C@H]1O [Compound 77, (1S,2R,7S,8S,8aS)-7-Butyl-1,2,8-trihydroxyindolizidine] | – | > 1000 | – | – | –
O[C@H]1[C@@H](CCOCc2ccccc2)CCN2C[C@@H](O)[C@@H](O)[C@H]12 [Compound 78, (1S,2R,7R,8S,8aS)-7-[2-(Benzyloxy)ethyl]-1,2,8-trihydroxyindolizidine] | – | > 1000 | – | – | –
